Several values for one entry are separate records, joined by “and”; a condition that tells them apart may be missing. Equal values may be shown once.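 Results reflect a 48-hour exposure of cells in 96-well plates to compound at five concentrations. GI50 = concentration required for 50% inhibition of growth. The concentration for full growth arrest is given as TGI.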

Among the test systems are XF 498 CNS; DLD-1 colon; KM20L2 colon; DMS 273 small cell lung; SNB-78 CNS; RXF-631 renal; HOP-18 NSCLC; DMS 114 small cell lung; MDA-N; P388/ADR leukemia; P388 leukemia.
Common to all, as to test: NCI tumour cell line growth inhibition, 48 h

In the case of `O=C(c1ccc(O)cc1O)C1C(c2ccc(O)cc2)OC(c2ccc(O)cc2)C1C(=O)c1ccc(O)cc1O` (stereo unspecified), the TGI is 32.3 µM in the assay with XF 498 CNS; above 100 µM in the assay with DLD-1 colon; above 100 µM in the assay with KM20L2 colon; 29.5 µM in the assay on DMS 273 small cell lung; above 100 µM with SNB-78 CNS.
`Nc1ccc2n[se]nc2c1`: the TGI in the assay with XF 498 CNS, in the assay on DLD-1 colon, with KM20L2 colon, in the assay on DMS 273 small cell lung, in the assay with RXF-631 renal and with HOP-18 NSCLC was above 100 µM each time. Also, the TGI in the assay with DMS 114 small cell lung and with SNB-78 CNS was above 100 µM in each case.
For the compound `Cc1ccc(NC(=O)CCc2nc(=S)[nH][nH]2)cc1`, the TGI in the assay on XF 498 CNS, in the assay with DLD-1 colon, with KM20L2 colon, with DMS 273 small cell lung, with RXF-631 renal and in the assay with HOP-18 NSCLC was above 100 µM throughout. In addition, the TGI with DMS 114 small cell lung and in the assay with SNB-78 CNS was above 100 µM each time.
With `CC1CC2C3CCC4=CC(=O)C=CC4(C)C3(F)C(O)CC2(C)C1(O)C(=O)COP(=O)(O)O` (stereo unspecified), the TGI with XF 498 CNS was above 100 µM; in the assay on DLD-1 colon, above 100 µM; with KM20L2 colon it was above 100 µM; in the assay with DMS 273 small cell lung, above 100 µM; in the assay on MDA-N it was 47.4 µM; in the assay with HOP-18 NSCLC, above 100 µM. The same compound yielded a TGI with SNB-78 CNS above 100 µM.
As to `O=C(O)C1=C/C(=C(/c2ccccc2)c2cc(C(=O)O)c(O)c3ccccc23)c2ccccc2C1=O`, the TGI in the assay with MDA-N was above 100 µM.
In the case of `COC(=O)CCSC(=O)Nc1ccc(N=Nc2ccccc2)cc1`, the TGI in the assay on XF 498 CNS is above 100 µM; with DLD-1 colon, above 100 µM; in the assay with KM20L2 colon it was 76.3 µM; with DMS 273 small cell lung, above 100 µM; in the assay with RXF-631 renal it was above 100 µM; in the assay with HOP-18 NSCLC, above 100 µM. Besides, the TGI with DMS 114 small cell lung and with SNB-78 CNS was above 100 µM throughout.
`C=C1C[C@H]2C=Nc3cc(OCCCOc4cc5c(cc4OC)C(=O)N4CC(=C)C[C@H]4C=N5)c(OC)cc3C(=O)N2C1` returned a TGI in the assay with MDA-N of 0.0256 µM.
Regarding `COC1=C(N)C(=O)c2nc(-c3nc(C(=O)O)c(C)c(-c4ccc(OC)c(OC)c4O)c3N)ccc2C1=O`, the TGI with XF 498 CNS was 0.0179 µM; in the assay with P388/ADR leukemia, 0.402 µM; with P388 leukemia, 0.473 µM; in the assay with DLD-1 colon, 0.0524 µM; in the assay with KM20L2 colon, 1.12 µM and 0.184 µM; with DMS 273 small cell lung it was 0.0194 µM. For the same compound, the TGI was 0.0269 µM and 0.0153 µM with MDA-N; 0.0395 µM in the assay with HOP-18 NSCLC; 0.0118 µM with DMS 114 small cell lung; 0.0324 µM and 0.0996 µM in the assay on SNB-78 CNS. The GI50 in the assay with MDA-N is 0.0117 µM.
Consider `Cc1nc(N)nc(N)c1CCCCc1ccc(N)cc1`, for which the TGI in the assay on XF 498 CNS came out at 23.6 µM; in the assay on DLD-1 colon, 31.6 µM; with KM20L2 colon it was 18.2 µM; in the assay with SNB-78 CNS, 27.2 µM.
For the compound `NC1NC=NC2C1N=CN2C1OC(CO)C2[O][Sn][O]C21` (stereo unspecified), the GI50 in the assay on XF 498 CNS was 1.15 µM; with KM20L2 colon, above 100 µM; with DMS 273 small cell lung, above 100 µM; with HOP-18 NSCLC, above 100 µM; with DMS 114 small cell lung, above 100 µM; with SNB-78 CNS, above 100 µM. The TGI in the assay on XF 498 CNS was 52.7 µM; in the assay with KM20L2 colon, above 100 µM; with DMS 273 small cell lung it was above 100 µM; in the assay on HOP-18 NSCLC, above 100 µM; with DMS 114 small cell lung it was above 100 µM; in the assay on SNB-78 CNS, above 100 µM.
Regarding `COc1ccccc1NC(=O)C1=C(C)NC(C)=C(C(=O)Nc2ccccc2OC)C1c1ccccc1[N+](=O)[O-]`, the TGI is 46.2 µM with XF 498 CNS; 36.5 µM with DLD-1 colon; 34.9 µM in the assay on DMS 273 small cell lung; 53.6 µM in the assay with RXF-631 renal; above 100 µM in the assay with HOP-18 NSCLC; 31.2 µM in the assay with DMS 114 small cell lung. In addition, in the assay on SNB-78 CNS, the TGI was above 100 µM.
With `CCCn1c2c(c3ccccc3c1=O)C(=O)c1ccccc1-2`, the TGI with MDA-N was above 100 µM.
Take `COc1cc[c]([Sn]([c]2ccc(OC)cc2)([c]2ccc(OC)cc2)[c]2ccc(OC)cc2)cc1`: the GI50 is above 100 µM in the assay on XF 498 CNS; 18.2 µM with KM20L2 colon; 25.2 µM with DMS 273 small cell lung; 3.81 µM in the assay with HOP-18 NSCLC; 23.5 µM in the assay with DMS 114 small cell lung; 23.7 µM in the assay on SNB-78 CNS. Further, the TGI in the assay on XF 498 CNS is above 100 µM; in the assay with KM20L2 colon it was 47 µM; with DMS 273 small cell lung it was 96.5 µM; in the assay with HOP-18 NSCLC it was 21.1 µM; with DMS 114 small cell lung it was above 100 µM; with SNB-78 CNS, 71 µM.
In the case of `NC(=O)c1ccc2c(c1)-c1nc-2nc2[n-]c(nc3nc(nc4[n-]c(n1)c1ccc(C(N)=O)cc41)-c1ccc(C(N)=O)cc1-3)c1ccc(C(N)=O)cc21.[Co+2]`, the GI50 in the assay with DLD-1 colon is 43.5 µM; in the assay with KM20L2 colon it was above 50 µM; in the assay on DMS 273 small cell lung it was above 50 µM; with RXF-631 renal, above 50 µM; with HOP-18 NSCLC it was above 50 µM; in the assay on DMS 114 small cell lung, 19.6 µM. In the assay with SNB-78 CNS, the GI50 was above 50 µM. For the same compound, the TGI in the assay on DLD-1 colon, in the assay on KM20L2 colon, in the assay on DMS 273 small cell lung, in the assay with RXF-631 renal, with HOP-18 NSCLC and in the assay with DMS 114 small cell lung was above 50 µM throughout. Further, the TGI with SNB-78 CNS was above 50 µM.
As for `CC1(C)CCC(Sc2ccccc2)O1` (stereo unspecified), the TGI in the assay on XF 498 CNS, in the assay with DLD-1 colon, with KM20L2 colon, in the assay with DMS 273 small cell lung, with DMS 114 small cell lung and in the assay with SNB-78 CNS was above 100 µM in each case.
The compound `Oc1ccc(Br)cc1C=Nc1cccc(C(F)(F)F)c1` had a TGI in the assay on MDA-N above 100 µM.

The record behind these values is PubChem BioAssay (NCI).
